Experimental findings from patent publication US20110130384A1, “AMIDE COMPOUND” (TAKEDA PHARMACEUTICAL COMPANY LIMITED, priority 2008, published 2011) are described below.

Molecules are shown by their SMILES.

This assay deals with T1, human GPR52 (Homo sapiens, UniProt Q9Y2T5).
T1 construct: expressed in transfected cells; host or cells: CHO(dhfr-) cells
T1 sequence (Q9Y2T5 whole entry): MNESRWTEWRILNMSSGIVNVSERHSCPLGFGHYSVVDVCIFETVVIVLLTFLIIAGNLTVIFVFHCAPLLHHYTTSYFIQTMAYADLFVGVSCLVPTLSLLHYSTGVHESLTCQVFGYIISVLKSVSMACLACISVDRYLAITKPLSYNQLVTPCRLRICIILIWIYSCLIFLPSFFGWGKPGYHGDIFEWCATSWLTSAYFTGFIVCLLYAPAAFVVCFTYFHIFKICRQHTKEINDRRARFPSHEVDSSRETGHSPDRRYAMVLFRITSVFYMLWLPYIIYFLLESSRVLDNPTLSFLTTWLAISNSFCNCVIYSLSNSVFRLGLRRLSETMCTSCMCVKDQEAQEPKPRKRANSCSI
As to the kind of experiment: Increase of intracellular cAMP concentration in human GPR52-expressing CHO cell (AlphaScreen cAMP assay). Conditions: 1 μM test compound, human GPR52-expressing CHO(dhfr-) cells, 37° C. for 30 min; intracellular cAMP with 1 μM Reference Example 124 = 100%, DMSO = 0%. In kind it is cell-based. On the procedure:
Increase of Intracellular cAMP Concentration in Human GPR52-Expressing CHO Cell
Using OptiPlate-384 (PerkinElmer Inc.), 1×10^4 human GPR52-expressing CHO(dhfr-) cells were incubated together with 1 μM of a test compound in an assay buffer (30 μL, HBSS (containing Ca^2+ and Mg^2+), 0.5% BSA, 100 μm IBMX, 100 μm Ro20-1724, 5 mM HEPES (pH 7.55)) at 37° C. for 30 min. Thereafter, according to the protocol of AlphaScreen cAMP Assay Kit (PerkinElmer Inc.), the intracellular cAMP concentration was measured by EnVision (PerkinElmer Inc.). The GPR52 agonist activity was calculated, assuming the intracellular cAMP concentration in the presence of 1 μM 3-(6-(2-(3,4-dimethoxyphenyl)ethoxy)pyridin-2-yl)-N-(2-pyrrolidin-1-ylethyl)benzamide (Reference Example 124) to be 100% and assuming the intracellular cAMP concentration when DMSO was added instead of the test compound to be 0%.
In the case of `O=C(NC(CO)CO)c1cccc(-c2ccc3c(c2)C(c2ccc(Cl)cc2Cl)CC3)c1` (centres unmarked) [Example 65, 3-[3-(2,4-dichlorophenyl)-2,3-dihydro-1H-inden-5-yl]-N-[2-hydroxy-1-(hydroxymethyl)ethyl]benzamide], the “GPR52 agonist activity (%)” value was determined as 91%.

Regarding `O=C(NCCO)c1cccc(-c2ccc3c(c2)N(c2cccc(Cl)c2Cl)CC3)c1` [Example 11, 3-[1-(2,3-dichlorophenyl)-2,3-dihydro-1H-indol-6-yl]-N-(2-hydroxyethyl)benzamide], the “GPR52 agonist activity (%)” value amounted to 74%.

Regarding `O=C(NCCO)c1cccc(-c2ccc3c(c2)N(c2cc(Cl)cc(Cl)c2)CC3)c1` [Example 9, 3-[1-(3,5-dichlorophenyl)-2,3-dihydro-1H-indol-6-yl]-N-(2-hydroxyethyl)benzamide], the “GPR52 agonist activity (%)” value is recorded as 59%.

Regarding `O=C(NCCO)c1cccc(-c2ccc3ccn(Cc4ccc(Cl)cc4Cl)c3n2)c1` [Example 28, 3-[1-(2,4-dichlorobenzyl)-1H-pyrrolo[2,3-b]pyridin-6-yl]-N-(2-hydroxyethyl)benzamide], the “GPR52 agonist activity (%)” value came to 64%.

In the case of `O=C(NCCO)c1cccc(-c2ccc3c(n2)N(c2ccc(Cl)cc2Cl)CC3)c1` [Example 35, 3-[1-(2,4-dichlorophenyl)-2,3-dihydro-1H-pyrrolo[2,3-b]pyridin-6-yl]-N-(2-hydroxyethyl)benzamide], the “GPR52 agonist activity (%)” value is recorded as 81%.

On to `O=C(NCCO)c1cccc(-c2ccc3c(c2)N(c2cc(Cl)ccc2Cl)CC3)c1` [Example 5, 3-[1-(2,5-dichlorophenyl)-2,3-dihydro-1H-indol-6-yl]-N-(2-hydroxyethyl)benzamide], for which the “GPR52 agonist activity (%)” value is 75%.

Consider `N#CCCNC(=O)c1cccc(-c2ccc3c(c2)C(c2ccc(Cl)cc2Cl)CC3)c1` (single isomer, unassigned; (+)) [Example 63, (+)-N-(2-cyanoethyl)-3-[3-(2,4-dichlorophenyl)-2,3-dihydro-1H-inden-5-yl]benzamide], for which the “GPR52 agonist activity (%)” value is 66%.

In the case of `COc1ccc(CCn2ccc3ccc(-c4cccc(C(=O)NCCC#N)c4)nc32)cc1OC` [Example 26, N-(2-cyanoethyl)-3-[1-[2-(3,4-dimethoxyphenyl)ethyl]-1H-pyrrolo[2,3-b]pyridin-6-yl]benzamide], the “GPR52 agonist activity (%)” value amounted to 62%.

As to `COc1ccc(CCn2ccc3ccc(-c4cccc(C(=O)NCCN(C)C)c4)nc32)cc1OC` [Example 25, 3-[1-[2-(3,4-dimethoxyphenyl)ethyl]-1H-pyrrolo[2,3-b]pyridin-6-yl]-N-[2-(dimethylamino)ethyl]benzamide], the “GPR52 agonist activity (%)” value is reported as 80%.

For `O=C(NCCO)c1cccc(-c2ccc3c(c2)C(Nc2ccc(Cl)cc2Cl)CO3)c1` (centres unmarked) [Example 87, 3-[3-[(2,4-dichlorophenyl)amino]-2,3-dihydro-1-benzofuran-5-yl]-N-(2-hydroxyethyl)benzamide], the “GPR52 agonist activity (%)” value was determined as 59%.

As to `N#CCCNC(=O)c1cccc(-c2ccc3c(n2)N(Cc2ccc(Cl)cc2Cl)CC3)c1` [Example 30, N-(2-cyanoethyl)-3-[1-(2,4-dichlorobenzyl)-2,3-dihydro-1H-pyrrolo[2,3-b]pyridin-6-yl]benzamide], the “GPR52 agonist activity (%)” value was found to be 72%.

As for `N#CCCNC(=O)c1cccc(-c2ccc3c(c2)C(Oc2ccc(Cl)cc2Cl)CC3)c1` (centres unmarked) [Example 73, N-(2-cyanoethyl)-3-[3-(2,4-dichlorophenoxy)-2,3-dihydro-1H-inden-5-yl]benzamide], the “GPR52 agonist activity (%)” value stood at 73%.

Consider `N#CCCNC(=O)c1cccc(-c2ccc3c(c2)N(c2ccc(Cl)cc2Cl)CC3)c1` [Example 2, N-(2-cyanoethyl)-3-[1-(2,4-dichlorophenyl)-2,3-dihydro-1H-indol-6-yl]benzamide], for which the “GPR52 agonist activity (%)” value was 69%.

Take `O=C(NCCO)c1cccc(-c2ccc3c(c2)C(c2ccc(Cl)cc2Cl)CCO3)c1` (centres unmarked) [Example 90, 3-[4-(2,4-dichlorophenyl)-3,4-dihydro-2H-chromen-6-yl]-N-(2-hydroxyethyl)benzamide]: the “GPR52 agonist activity (%)” value was 65%.

For the compound `N#CCCNC(=O)c1cccc(-c2ccc3c(c2)N(c2cc(Cl)ccc2Cl)CC3)c1` [Example 4, N-(2-cyanoethyl)-3-[1-(2,5-dichlorophenyl)-2,3-dihydro-1H-indol-6-yl]benzamide], the “GPR52 agonist activity (%)” value is on record as 75%.

Regarding `N#CCCNC(=O)c1cccc(-c2ccc3c(n2)N(c2ccc(Cl)cc2Cl)CC3)c1` [Example 34, N-(2-cyanoethyl)-3-[1-(2,4-dichlorophenyl)-2,3-dihydro-1H-pyrrolo[2,3-b]pyridin-6-yl]benzamide], the “GPR52 agonist activity (%)” value came to 74%.

Take `O=C(NCCO)c1cccc(-c2ccc3c(n2)N(Cc2ccc(Cl)cc2Cl)CC3)c1` [Example 29, 3-[1-(2,4-dichlorobenzyl)-2,3-dihydro-1H-pyrrolo[2,3-b]pyridin-6-yl]-N-(2-hydroxyethyl)benzamide]: the “GPR52 agonist activity (%)” value stood at 76%.

With `N#CCCNC(=O)c1cccc(-c2ccc3c(c2)N(c2ccc(Cl)c(Cl)c2)CC3)c1` [Example 6, N-(2-cyanoethyl)-3-[1-(3,4-dichlorophenyl)-2,3-dihydro-1H-indol-6-yl]benzamide], the “GPR52 agonist activity (%)” value is 59%.

With `CN(C)CCNC(=O)c1cccc(-c2ccc3c(c2)C(c2cc(Cl)ccc2Cl)CC3)c1` (centres unmarked) [Example 51, 3-[3-(2,5-dichlorophenyl)-2,3-dihydro-1H-inden-5-yl]-N-[2-(dimethylamino)ethyl]benzamide], the “GPR52 agonist activity (%)” value was found to be 89%.

Take `O=C(NCCO)c1cccc(-c2ccc3c(c2)N(c2ccc(Cl)cc2Cl)CC3)c1` [Example 3, 3-[1-(2,4-dichlorophenyl)-2,3-dihydro-1H-indol-6-yl]-N-(2-hydroxyethyl)benzamide]: the “GPR52 agonist activity (%)” value worked out at 71%.

Consider `N#CCCNC(=O)c1cccc(-c2ncc3ccn(Cc4ccc(Cl)cc4Cl)c3n2)c1` [Example 40, N-(2-cyanoethyl)-3-[7-(2,4-dichlorobenzyl)-7H-pyrrolo[2,3-d]pyrimidin-2-yl]benzamide], for which the “GPR52 agonist activity (%)” value turned out to be 52%.

Turning to `O=C(Nc1cccnc1)c1cccc(-c2ccc3c(c2)C(Oc2ccc(Cl)cc2Cl)CC3)c1` (centres unmarked) [Example 80, 3-[3-(2,4-dichlorophenoxy)-2,3-dihydro-1H-inden-5-yl]-N-pyridin-3-ylbenzamide], the “GPR52 agonist activity (%)” value is 70%.

On to `N#CCCNC(=O)c1cccc(-c2ccc3c(c2)N(c2ccc(Cl)cc2Cl)CCO3)c1` [Example 47, N-(2-cyanoethyl)-3-[4-(2,4-dichlorophenyl)-3,4-dihydro-2H-1,4-benzoxazin-6-yl]benzamide], for which the “GPR52 agonist activity (%)” value came to 63%.

On to `N#CCCNC(=O)c1cccc(-c2ccc3c(c2)N(Cc2cc(Cl)cc(Cl)c2)CC3)c1` [Example 15, N-(2-cyanoethyl)-3-[1-(3,5-dichlorobenzyl)-2,3-dihydro-1H-indol-6-yl]benzamide], for which the “GPR52 agonist activity (%)” value is 77%.

`C[S+]([O-])CCNC(=O)c1cccc(-c2ccc3c(c2)C(c2ccc(Cl)cc2Cl)CC3)c1` (centres unmarked) [Example 66, 3-[3-(2,4-dichlorophenyl)-2,3-dihydro-1H-inden-5-yl]-N-[2-(methylsulfinyl)ethyl]benzamide]: the “GPR52 agonist activity (%)” value is reported as 88%.

Regarding `O=C(NCCO)c1cccc(-c2ccc3c(c2)C(Oc2ccc(Cl)cc2Cl)CC3)c1` (centres unmarked) [Example 74, 3-[3-(2,4-dichlorophenoxy)-2,3-dihydro-1H-inden-5-yl]-N-(2-hydroxyethyl)benzamide], the “GPR52 agonist activity (%)” value was 76%.

As to `CS(=O)(=O)CCNC(=O)c1cccc(-c2ccc3c(c2)C(c2ccc(Cl)cc2Cl)CC3)c1` (centres unmarked) [Example 67, 3-[3-(2,4-dichlorophenyl)-2,3-dihydro-1H-inden-5-yl]-N-[2-(methylsulfonyl)ethyl]benzamide], the “GPR52 agonist activity (%)” value is 73%.

Regarding `O=C(NCCO)c1cccc(-c2ccc3c(c2)N(c2ccc(Cl)c(Cl)c2)CC3)c1` [Example 7, 3-[1-(3,4-dichlorophenyl)-2,3-dihydro-1H-indol-6-yl]-N-(2-hydroxyethyl)benzamide], the “GPR52 agonist activity (%)” value is 67%.

Consider `CS(=O)(=O)CCNC(=O)c1cccc(-c2ccc3c(c2)C(Oc2ccc(Cl)cc2Cl)CC3)c1` (centres unmarked) [Example 77, 3-[3-(2,4-dichlorophenoxy)-2,3-dihydro-1H-inden-5-yl]-N-[2-(methylsulfonyl)ethyl]benzamide], for which the “GPR52 agonist activity (%)” value was 73%.
